US6544773B1, “Microbial process for degradation of PCBS in clophen A-50 using a novel marine microorganism, Pseudomonas CH07” (priority 2001, dated 2003)

Legend:
Pseudomonas CH07 [1] = assay: Degradation of PCB congeners of Clophen A-50 by Pseudomonas CH07 in seawater nutrient broth, GC-ECD analysis; details: for Degradation Of PCBs: 40 hrs incubation with Pseudomonas CH07, versus control; for Conc. of PCBs in Test sol. (incubation) 40 hrs.: incubation with Pseudomonas CH07 for 40 hrs, Clophen A-50 100 ppm in seawater nutrient broth
Protocol: A defined seawater nutrient broth medium (code no. 088 from Himedia, Bombay) containing beef extract 3 g L^−1, peptic digest of animal tissue 5 g L^−1 was used. One liter of medium contained 500 ml seawater and 500 ml distilled water and the final pH was adjusted to 7 using 0.1 N NaOH. After autoclaving, the required amount of stock solution (10,000 ppm) of Clophen A-50 was added to the medium in sterile condition to achieve a final concentration of 100 ppm. Immediately after adding the stock PCBs solution, the hexane part of it was evaporated out by gently swirling the flask in sterile condition and sterile glycerol was added to the medium in a 1:1 ratio of stock solution:glycerol. 40 μl of 24 hold culture of Pseudomonas CH07 growths was added in two replicates of 20 ml of test (seawater nutrient broth+Clophen A-50) medium to seawater nutrient broth (without any addition of Clophen A-50). Controls in duplicate were also maintained without the addition of the organism at room temperature (ca. 28°±2° C.). Control and test cultures were maintained at room temperature for two days and at various predecided intervals of time, the samples was taken out aseptically and prepared for GC analysis. The details of the sample preparation is described below.
The PCBs were analyzed following the method described by Boon et al. The method was standardized in our laboratory using the PCBs standards obtained from Promochem, Germany as well as other analytical grade chemicals from E. Merck. The purity of the solvents was checked by Gas chromatography for each of the bottles. The different adsorbents, alumina, silica, were purified by soxhlet extraction with di-chloro-methane (HPLC grade) for about eight hours. The anhydrous Na2SO4 and the glass wool were also purified by Soxhlet extraction with HPLC grade di-chloro methane. The different steps of the analytical methods are illustrated below:
i. Aliquot of 1 ml sample was treated with 1 ml n-hexane (HPLC grade) thrice and thoroughly mixed by a vortex mixture for five minutes each time. The upper part of the solvent layer (solvent extract) was separated with the help of micropipette and transferred to a sterilized glass tube.
ii. Concentrate the solvent extract to 1 ml by evaporation with Snyder column evaporator on a water bath at 85° C.
iii. Purify of the solvent extract by alumina clean up using micro-column technique.
iv. Concentrate the solvent extract to 1 ml by evaporation with Snyder column evaporator on a water bath at 85° C.
v. Isolate PCBs from polar chlorinated compounds by eluting through micro-column of silica.
vi. Concentrate the PCBs fraction to 1 ml by evaporation with Snyder column evaporator on a water bath at 85° C.
vii. Analyze the aliquot by GC-ECD with reference to standard PCBs (individual congeners).
The samples were analyzed by gas chromatography (Varian GC-3380) coupled with an electron capture detector and an autosampler 8200. Capillary column VA-5 (30 m×0.25 mm) was employed with electron capture detector […] for peak detection. Argon with 5% methane was the carrier gas. A temperature program was used (table. 3). […] The experimental condition of the instrument is illustrated in the table-4. The analysis of PCBs was calibrated using the standards for individual congeners of PCBs obtained from Promochem, Germany. Using different dilutions of the stock solution of the standards carried out the calibration of each of the individual congeners. The linearity of the calibration curve was determined with a range of dilution of the mix-standards.

Pseudomonas CH07 [2] = assay: Taxonomical characteristics: growth of Pseudomonas CH07 on antibiotics; format: cell-based; design: key: −: negative response (no growth); +: positive response (slight or moderate growth); ++: very good response (good growth); details: Table 1, taxonomical tests

Compound	Degradation Of PCBs (Pseudomonas CH07 [1]) [%]	Conc. of PCBs in Test sol. (incubation) 40 hrs. (Pseudomonas CH07 [1]) [ng/mL]	Growth on (Response) (Pseudomonas CH07 [2])
Clc1ccc(-c2ccc(Cl)c(Cl)c2)cc1Cl [CB-77, 3,3′,4,4′-tetrachlorobiphenyl]	24.25	40.42	–
Clc1cc(Cl)c(-c2cccc(Cl)c2Cl)cc1Cl [CB-97, 2,2′,3′,4,5-Pentachloro]	19.69	–	–
Clc1ccc(Cl)c(-c2cc(Cl)c(Cl)cc2Cl)c1 [CB-101, 2,2′,4,5,5′-Pentachloro]	20.19	–	–
Clc1ccc(-c2ccc(Cl)c(Cl)c2Cl)cc1Cl [CB-105, 2,3,3′,4,4′-Pentachloro]	46.69	–	–
Clc1c(Cl)c(Cl)c(-c2ccccc2)c(Cl)c1Cl [CB-116, 2,3,4,5,6-Pentachloro]	20.04	8.06	–
Clc1ccc(-c2cc(Cl)c(Cl)cc2Cl)cc1Cl [CB-118, 2,3′,4,4′,5-Pentachloro]	40.72	–	–
Clc1cc(Cl)c(-c2ccc(Cl)c(Cl)c2)c(Cl)c1 [CB-119, 2,3′,4,4′,6-Pentachloro]	19.66	6.48	–
Clc1ccc(-c2cc(Cl)c(Cl)c(Cl)c2)cc1Cl [CB-126, 3,3′,4,4′,5-Pentachloro]	100	00.00	–
Clc1ccc(-c2ccc(Cl)c(Cl)c2Cl)c(Cl)c1Cl [CB-128, 2,2′,3,3′,4,4′-Hexachloro]	64.33	–	–
Clc1cc(Cl)c(-c2ccc(Cl)c(Cl)c2Cl)cc1Cl [CB-138, 2,2′,3,4,4′,5′-Hexachloro]	55.97	–	–
Clc1ccc(Cl)c(-c2cc(Cl)c(Cl)c(Cl)c2Cl)c1 [CB-141, 2,2′,3,4,5,5′-Hexachloro]	55.38	–	–
Clc1ccc(Cl)c(-c2c(Cl)c(Cl)cc(Cl)c2Cl)c1 [CB-151, 2,2′,3,5,5′,6-Hexachloro]	37.32	–	–
Clc1cc(Cl)c(-c2cc(Cl)c(Cl)c(Cl)c2Cl)cc1Cl [CB-180, 2,2′,3,4,4′,5,5′-Heptachloro]	61.33	–	–
Clc1ccc(-c2c(Cl)c(Cl)c(Cl)c(Cl)c2Cl)c(Cl)c1 [CB-181, 2,2′,3,4,4′,5,6-Heptachloro]	100	–	–
CN(C)[C@@H]1C(O)=C(C(N)=O)C(=O)[C@@]2(O)C(O)=C3C(=O)c4c(O)ccc(Cl)c4[C@@H](O)[C@H]3C[C@@H]12 [Demechlocyclin]	–	–	++
NC[C@H]1O[C@H](O[C@H]2[C@H](O)[C@@H](O[C@H]3O[C@H](CO)[C@@H](O)[C@H](N)[C@H]3O)[C@H](N)C[C@@H]2N)[C@H](O)[C@@H](O)[C@@H]1O [Kanamycin]	–	–	++
[H]/N=C(/N)N[C@H]1[C@H](O)[C@@H](O)[C@H](O[C@@H]2O[C@@H](C)[C@](O)(C=O)[C@H]2O[C@@H]2O[C@@H](CO)[C@H](O)[C@@H](O)[C@@H]2NC)[C@@H](N/C(N)=N\[H])[C@@H]1O [Streptomycin]	–	–	++
CN(C)[C@@H]1C(O)=C(C(N)=O)C(=O)[C@@]2(O)C(O)=C3C(=O)c4c(O)cccc4[C@@](C)(O)[C@H]3C[C@@H]12 [Tetracycline]	–	–	++
Neomycin	–	–	++
